# Laboratory results published in paper PMC3228837 (Journal of medicinal chemistry, 2011).
# Legend:
# NaV1.6 = NaV1.6 (Mus musculus, UniProt Q9WTU3); type: cell-based
# NaV1.2 = NaV1.2 (Rattus norvegicus, UniProt P04775); type: cell-based
# Chain of NaV1.2 (P04775 whole entry, looked up): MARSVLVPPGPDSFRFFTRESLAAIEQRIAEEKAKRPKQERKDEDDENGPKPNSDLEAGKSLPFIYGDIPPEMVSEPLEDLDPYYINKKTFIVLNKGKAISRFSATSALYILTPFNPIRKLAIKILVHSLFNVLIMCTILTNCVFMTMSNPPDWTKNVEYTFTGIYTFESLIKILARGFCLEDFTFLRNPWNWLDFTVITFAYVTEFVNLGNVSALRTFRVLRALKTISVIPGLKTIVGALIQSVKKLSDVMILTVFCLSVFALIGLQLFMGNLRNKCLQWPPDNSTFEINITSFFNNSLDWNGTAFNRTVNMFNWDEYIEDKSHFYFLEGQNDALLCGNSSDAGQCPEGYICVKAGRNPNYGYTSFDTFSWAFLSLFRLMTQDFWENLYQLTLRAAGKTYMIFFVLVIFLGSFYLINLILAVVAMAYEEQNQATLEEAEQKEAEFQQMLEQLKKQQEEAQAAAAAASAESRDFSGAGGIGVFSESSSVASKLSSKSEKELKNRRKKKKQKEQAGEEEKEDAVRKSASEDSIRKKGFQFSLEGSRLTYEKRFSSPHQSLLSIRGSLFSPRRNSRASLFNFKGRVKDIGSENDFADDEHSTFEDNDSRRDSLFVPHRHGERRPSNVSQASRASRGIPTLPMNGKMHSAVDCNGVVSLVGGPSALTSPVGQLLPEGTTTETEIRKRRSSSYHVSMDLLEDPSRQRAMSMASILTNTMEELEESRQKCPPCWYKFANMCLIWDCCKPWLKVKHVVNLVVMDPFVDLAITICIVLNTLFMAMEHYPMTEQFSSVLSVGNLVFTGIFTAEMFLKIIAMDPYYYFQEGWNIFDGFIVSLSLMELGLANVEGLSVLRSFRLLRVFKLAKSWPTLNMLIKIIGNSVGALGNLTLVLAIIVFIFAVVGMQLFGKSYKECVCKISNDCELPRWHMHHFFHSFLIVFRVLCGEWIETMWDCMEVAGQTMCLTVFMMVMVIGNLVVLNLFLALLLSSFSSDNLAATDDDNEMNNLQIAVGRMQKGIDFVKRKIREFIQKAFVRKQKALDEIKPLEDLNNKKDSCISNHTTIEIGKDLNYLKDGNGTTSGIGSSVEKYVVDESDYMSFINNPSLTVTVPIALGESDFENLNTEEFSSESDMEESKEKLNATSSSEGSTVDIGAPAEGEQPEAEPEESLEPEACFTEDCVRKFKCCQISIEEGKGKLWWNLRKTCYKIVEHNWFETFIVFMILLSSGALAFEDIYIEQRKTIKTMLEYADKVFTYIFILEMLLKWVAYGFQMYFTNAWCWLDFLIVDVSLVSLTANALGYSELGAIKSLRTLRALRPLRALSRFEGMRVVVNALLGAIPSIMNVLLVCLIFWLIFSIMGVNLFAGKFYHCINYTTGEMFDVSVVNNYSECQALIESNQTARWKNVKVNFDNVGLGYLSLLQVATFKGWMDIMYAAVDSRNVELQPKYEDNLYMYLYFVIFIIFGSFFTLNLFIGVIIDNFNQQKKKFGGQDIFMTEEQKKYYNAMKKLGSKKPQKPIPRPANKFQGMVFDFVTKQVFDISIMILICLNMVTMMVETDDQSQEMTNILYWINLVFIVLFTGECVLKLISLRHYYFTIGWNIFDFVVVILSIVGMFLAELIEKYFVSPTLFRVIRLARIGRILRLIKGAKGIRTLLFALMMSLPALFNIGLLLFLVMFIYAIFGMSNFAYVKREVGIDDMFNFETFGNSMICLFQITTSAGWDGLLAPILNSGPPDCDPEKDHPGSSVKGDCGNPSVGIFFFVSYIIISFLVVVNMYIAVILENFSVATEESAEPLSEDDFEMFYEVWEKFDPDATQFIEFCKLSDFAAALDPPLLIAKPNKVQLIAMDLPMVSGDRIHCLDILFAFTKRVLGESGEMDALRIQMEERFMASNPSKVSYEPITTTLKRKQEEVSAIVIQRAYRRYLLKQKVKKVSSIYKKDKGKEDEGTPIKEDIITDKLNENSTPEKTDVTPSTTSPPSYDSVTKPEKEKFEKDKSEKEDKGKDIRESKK
# Chain of NaV1.6 (Q9WTU3 whole entry, looked up): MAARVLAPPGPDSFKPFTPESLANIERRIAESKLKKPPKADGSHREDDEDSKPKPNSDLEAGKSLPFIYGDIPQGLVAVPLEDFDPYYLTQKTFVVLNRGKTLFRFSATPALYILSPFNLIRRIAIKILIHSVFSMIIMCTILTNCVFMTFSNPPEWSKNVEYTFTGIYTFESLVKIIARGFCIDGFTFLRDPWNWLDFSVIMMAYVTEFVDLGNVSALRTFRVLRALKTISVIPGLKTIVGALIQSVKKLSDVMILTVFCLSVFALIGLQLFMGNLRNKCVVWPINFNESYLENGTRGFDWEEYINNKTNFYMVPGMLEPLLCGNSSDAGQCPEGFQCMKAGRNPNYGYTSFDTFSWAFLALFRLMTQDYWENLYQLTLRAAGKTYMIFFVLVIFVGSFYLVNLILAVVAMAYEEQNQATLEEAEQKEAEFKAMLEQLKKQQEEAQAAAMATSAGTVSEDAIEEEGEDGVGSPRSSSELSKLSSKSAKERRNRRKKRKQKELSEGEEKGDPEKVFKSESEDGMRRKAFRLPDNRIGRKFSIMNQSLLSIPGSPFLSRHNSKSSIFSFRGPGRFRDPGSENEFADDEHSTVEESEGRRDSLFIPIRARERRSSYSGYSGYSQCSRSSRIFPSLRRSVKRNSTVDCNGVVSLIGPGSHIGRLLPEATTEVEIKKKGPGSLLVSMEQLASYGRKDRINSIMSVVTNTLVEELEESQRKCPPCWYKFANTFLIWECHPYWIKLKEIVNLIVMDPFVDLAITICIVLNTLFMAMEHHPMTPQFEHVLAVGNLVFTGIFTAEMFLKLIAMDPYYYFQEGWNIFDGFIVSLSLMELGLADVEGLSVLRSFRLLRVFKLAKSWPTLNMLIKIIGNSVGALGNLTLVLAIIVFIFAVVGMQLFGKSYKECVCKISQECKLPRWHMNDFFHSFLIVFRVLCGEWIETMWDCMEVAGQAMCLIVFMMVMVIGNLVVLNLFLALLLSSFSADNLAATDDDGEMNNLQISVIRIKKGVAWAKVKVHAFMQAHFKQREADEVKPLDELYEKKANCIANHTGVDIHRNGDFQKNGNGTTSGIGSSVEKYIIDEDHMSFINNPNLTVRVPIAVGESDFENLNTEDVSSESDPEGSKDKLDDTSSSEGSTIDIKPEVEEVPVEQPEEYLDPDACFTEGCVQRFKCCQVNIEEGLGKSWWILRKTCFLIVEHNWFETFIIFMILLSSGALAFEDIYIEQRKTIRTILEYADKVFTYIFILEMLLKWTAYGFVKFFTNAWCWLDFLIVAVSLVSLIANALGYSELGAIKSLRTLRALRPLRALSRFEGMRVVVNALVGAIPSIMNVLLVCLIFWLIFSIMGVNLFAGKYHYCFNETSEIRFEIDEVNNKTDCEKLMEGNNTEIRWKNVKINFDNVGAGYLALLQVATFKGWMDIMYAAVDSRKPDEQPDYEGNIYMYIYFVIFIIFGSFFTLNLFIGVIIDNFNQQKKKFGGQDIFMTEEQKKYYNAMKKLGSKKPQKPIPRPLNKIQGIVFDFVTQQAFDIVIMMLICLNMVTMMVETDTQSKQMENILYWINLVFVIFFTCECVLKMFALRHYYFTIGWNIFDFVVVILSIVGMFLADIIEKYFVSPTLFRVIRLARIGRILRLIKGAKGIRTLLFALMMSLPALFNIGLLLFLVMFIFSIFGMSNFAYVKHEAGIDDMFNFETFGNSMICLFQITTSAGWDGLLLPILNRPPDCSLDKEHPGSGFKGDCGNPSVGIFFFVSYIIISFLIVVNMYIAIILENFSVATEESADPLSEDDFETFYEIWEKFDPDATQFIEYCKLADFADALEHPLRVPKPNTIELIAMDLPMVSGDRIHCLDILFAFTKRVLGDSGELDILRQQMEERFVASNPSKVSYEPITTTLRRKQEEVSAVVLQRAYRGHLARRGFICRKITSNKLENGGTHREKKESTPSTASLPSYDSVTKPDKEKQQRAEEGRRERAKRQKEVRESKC
substance,measurement,setting,value
Ac-DSKWKRDHSR-NH2 [Peptide D5K9],% block of NaV1.6,NaV1.6,36.0 ± 0.7%
same,% block of NaV1.2,NaV1.2,33.1 ± 0.9%
